The test has as its target T1, His-tagged full-length RSK2 (RPS6KA3) (Homo sapiens, UniProt P51812).
T1 construct: His-tagged full-length RSK2 (RPS6KA3, Invitrogen PV3323); His; purchased Invitrogen PV3323
Briefly: RSK2 Omnia Assay for compound IC50 determination. It counts as biochemical. The following applies: ATP 15 μM, n=2, read-out: Mean RSK2 Biochem IC50. The procedure: RSK1 & RSK2 Omnia Assay Protocol for Compound IC50 Determination
The Omnia Assay (Invitrogen) has been optimized for His-tagged full length RSK1 (RPS6KA1, Millipore 14-509) and for His-tagged full-length RSK2 (RPS6KA3, Invitrogen PV3323). In this assay system, Omnia ST Peptide 6 (Invitrogen KNZ1061) functions as a substrate for RSK1 or RSK2. Phosphorylation of this SOX-containing peptide results in an increase in fluorescence at 485 nm upon excitation at 360 nm.
Assays are carried out in 384-well OptiPlates (Perkin Elmer 6007290) in a total volume of 20 μL containing RSK1 ([…]) or RSK2 ([…]), Omnia ST Peptide 6 (5 μM), ATP (15 μM, Km=16.3 μM), and test compound (variable) in RSK assay buffer (50 mM HEPES, pH 7.5, 10 mM MgCl2, 0.01% Tween-20, 1% glycerol, 1 mM DTT, 1 mM EGTA, 0.01% BSA) with 1% DMSO.
IC50s for test compounds are typically determined using an 11-point three-fold serial dilution with a final assay concentration ranging either from 170 μM to […] or from 17 μM to […]. All compound concentrations are assayed in duplicate. Initial compound dilutions are prepared at 100× concentration in 100% DMSO from a 10 mM stock solution. Compounds are further diluted 1:25 in assay buffer resulting in a 4× concentrated solution.
To run the assay 5 μL of the above 4× concentrated compound solution (or 4% DMSO for positive controls) is added to the assay plate followed by 5 μL of a solution containing peptide (20 μM) and ATP (60 μM) in assay buffer. The reaction is initiated by the addition of 10 μL of RSK1 ([…]) or RSK2 ([…]) in assay buffer, or assay buffer alone for negative controls. The increase in fluorescence due to peptide phosphorylation is monitored continuously as a function of time using a Spectramax M5 plate reader (Molecular Devices) equipped with SoftMax Pro software.
The slopes from the linear portion of progress curves are used to determine IC50 values by non-linear curve-fitting to a four-parameter equation using GraphPad Prism (GraphPad Software, Inc.) or XLFit (IDBS). IC50's are determined in duplicate (n=2) and Ki values are calculated from IC50 values using the Cheng-Prusoff equation assuming a competitive mode of inhibition.

Some results are limits rather than exact numbers.

T1 sequence (P51812 whole entry): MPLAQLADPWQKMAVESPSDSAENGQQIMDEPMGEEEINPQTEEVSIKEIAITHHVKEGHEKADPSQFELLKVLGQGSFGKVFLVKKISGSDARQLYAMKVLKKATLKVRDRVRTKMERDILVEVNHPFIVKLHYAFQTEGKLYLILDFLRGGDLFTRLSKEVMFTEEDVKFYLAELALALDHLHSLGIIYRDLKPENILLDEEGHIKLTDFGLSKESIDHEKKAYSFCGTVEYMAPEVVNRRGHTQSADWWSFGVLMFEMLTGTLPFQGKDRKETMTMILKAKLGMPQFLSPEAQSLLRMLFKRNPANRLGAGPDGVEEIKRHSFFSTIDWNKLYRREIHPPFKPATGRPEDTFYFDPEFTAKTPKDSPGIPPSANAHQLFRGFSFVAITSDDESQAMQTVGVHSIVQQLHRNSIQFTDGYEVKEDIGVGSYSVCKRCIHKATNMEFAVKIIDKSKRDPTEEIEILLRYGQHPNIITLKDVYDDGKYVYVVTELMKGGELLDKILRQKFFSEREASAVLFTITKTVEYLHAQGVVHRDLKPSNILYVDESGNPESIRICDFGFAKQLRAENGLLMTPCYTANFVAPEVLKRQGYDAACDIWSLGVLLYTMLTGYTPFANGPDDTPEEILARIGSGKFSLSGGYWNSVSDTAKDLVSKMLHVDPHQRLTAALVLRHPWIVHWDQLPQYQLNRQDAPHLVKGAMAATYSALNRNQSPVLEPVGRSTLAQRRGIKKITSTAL

With `C[C@@H]1C(=O)N(c2ccccc2)c2cnc(Nc3ccc4c(c3)CC(=O)N4)nc2N1C1CCCC1` [Example 68, (7R)-8-cyclopentyl-7-methyl-2-[(2-oxo-2,3-dihydro-1H-indol-5-yl)amino]-5-phenyl-7,8-dihydropteridin-6(5H)-one], the IC50 – broadly, the concentration at which inhibition is half-maximal – is at most 100 nM.

For the compound `COc1ccc(N2C(=O)[C@@H](C)N(C3CCCCC3)c3nc(Nc4ccc5[nH]c(=O)oc5c4)ncc32)cc1C#N` [compound 165, 5-[(7R)-8-cyclohexyl-7-methyl-6-oxo-2-[(2-oxo-2,3-dihydro-1,3-benzoxazol-6-yl)amino]-7,8-dihydropteridin-5(6H)-yl]-2-methoxybenzonitrile], the IC50 was at most 100 nM.

With `C[C@@H]1C(=O)N(c2cccc(C#N)c2)c2cnc(Nc3ccc4[nH]ncc4c3F)nc2N1C1CCCC1` [Example 216, 3-[(7R)-8-cyclopentyl-2-[(4-fluoro-1H-indazol-5-yl)amino]-7-methyl-6-oxo-7,8-dihydropteridin-5(6H)-yl]benzonitrile], the concentration for half-maximal inhibition (IC50) was at most 100 nM.

As for `C[C@@H]1C(=O)N(c2cccc(C#N)c2)c2cnc(Nc3ccc4c(c3)CNC4=O)nc2N1C1CCCCC1` [compound 161], the IC50 is at most 100 nM.

Take `C[C@@H]1C(=O)N(c2ccc(N3CCCC3)nc2)c2cnc(Nc3cc(F)c4[nH]ncc4c3)nc2N1C1CCC(C)(C)CC1` [Example 214, (7R)-8-(4,4-dimethylcyclohexyl)-2-[(7-fluoro-1H-indazol-5-yl)amino]-7-methyl-5-[6-(pyrrolidin-1-yl)pyridin-3-yl]-7,8-dihydropteridin-6(5H)-one]: the IC50 was at most 100 nM.

Take `C[C@@H]1C(=O)N(c2ccc(N3CCCCC3)nc2)c2cnc(Nc3cc(F)c4[nH]ncc4c3)nc2N1C1CCC(C)(C)CC1` [Example 215, (7R)-8-(4,4-dimethylcyclohexyl)-2-[(7-fluoro-1H-indazol-5-yl)amino]-7-methyl-5-[6-(piperidin-1-yl)pyridin-3-yl]-7,8-dihydropteridin-6(5H)-one]: the concentration for half-maximal inhibition (IC50) is at most 100 nM.

In the case of `C[C@@H]1C(=O)N(c2ccc(C(F)(F)F)cc2)c2cnc(Nc3ccc4[nH]ncc4c3)nc2N1C1CCCCC1` [Example 35, (7R)-8-cyclohexyl-2-(1H-indazol-5-ylamino)-7-methyl-5-[4-(trifluoromethyl)phenyl]-7,8-dihydropteridin-6(5H)-one], the IC50 was at most 100 nM.

For the compound `C[C@@H]1C(=O)N(c2cccc(C#N)c2)c2cnc(Nc3cc(F)c(O)c(F)c3)nc2N1[C@H]1CC[C@H](C)CC1` [compound 243, 3-[(7R)-2-[(3,5-difluoro-4-hydroxyphenyl)amino]-7-methyl-8-(trans-4-methylcyclohexyl)-6-oxo-7,8-dihydropteridin-5(6H)-yl]benzonitrile], the IC50 was at most 100 nM.

For `C[C@@H]1C(=O)N(c2cccnc2)c2cnc(Nc3cc(F)c4[nH]ncc4c3)nc2N1C1CCOCC1` [compound 191, (7R)-2-[(7-fluoro-1H-indazol-5-yl)amino]-7-methyl-5-(pyridin-3-yl)-8-(tetrahydro-2H-pyran-4-yl)-7,8-dihydropteridin-6(5H)-one], the IC50 is at most 100 nM.

Take `C[C@@H]1C(=O)N(c2cccc(S(C)(=O)=O)c2)c2cnc(Nc3ccc4[nH]ncc4c3)nc2N1C1CCCCC1` [Example 43, (7R)-8-cyclohexyl-2-(1H-indazol-5-ylamino)-7-methyl-5-[3-(methylsulfonyl)phenyl]-7,8-dihydropteridin-6(5H)-one]: the IC50 is at most 100 nM.

As to `CCOc1ccc(N2C(=O)[C@@H](C)N([C@H]3CC[C@H](C)CC3)c3nc(Nc4cnc5[nH]ncc5c4)ncc32)cc1C#N` [compound 246, 2-Ethoxy-5-[(7R)-7-methyl-8-(trans-4-methylcyclohexyl)-6-oxo-2-(1H-pyrazolo[3,4-b]pyridin-5-ylamino)-7,8-dihydropteridin-5(6H)-yl]benzonitrile], the IC50 was at most 100 nM.

As for `C[C@@H]1C(=O)N(c2cccc(C#N)c2)c2cnc(Nc3cc(F)c(O)c(F)c3)nc2N1[C@H]1CC[C@H](C(F)(F)F)CC1` [compound 259, 3-[(7R)-2-[(3,5-difluoro-4-hydroxyphenyl)amino]-7-methyl-6-oxo-8-[trans-4-(trifluoromethyl)cyclohexyl]-7,8-dihydropteridin-5(6H)-yl]benzonitrile], the IC50 is at most 100 nM.

For `C[C@@H]1C(=O)N(c2cccc(C#N)c2)c2cnc(Nc3ccc4[nH]c(=O)[nH]c4c3)nc2N1C1CCC(F)(F)CC1` [compound 265, 3-[(7R)-8-(4,4-difluorocyclohexyl)-7-methyl-6-oxo-2-[(2-oxo-2,3-dihydro-1H-benzimidazol-5-yl)amino]-7,8-dihydropteridin-5(6H)-yl]benzonitrile], the concentration for half-maximal inhibition (IC50) is over 1000 nM.

As for `C[C@@H]1C(=O)N(c2cccc(C#N)c2)c2cnc(Nc3ccc(C#N)cc3)nc2N1C1CCC(F)(F)CC1` [compound 274, 3-[(7R)-2-[(4-cyanophenyl)amino]-8-(4,4-difluorocyclohexyl)-7-methyl-6-oxo-7,8-dihydropteridin-5(6H)-yl]benzonitrile], the half-maximal inhibitory concentration (IC50) was 100 to 1000 nM.

Consider `COc1n[nH]c2ccc(Nc3ncc4c(n3)N(C3CCCCC3)[C@H](C)C(=O)N4c3cccc(C#N)c3)cc12` [compound 116, 3-[(7R)-8-cyclohexyl-2-[(3-methoxy-1H-indazol-5-yl)amino]-7-methyl-6-oxo-7,8-dihydropteridin-5(6H)-yl]benzonitrile], for which the concentration for half-maximal inhibition (IC50) was at most 100 nM.

On to `COc1ccc(N2C(=O)[C@@H](C)N(C3CCOCC3)c3nc(Nc4ccc5[nH]c(=O)oc5c4)ncc32)cc1C#N` [compound 197, 2-Methoxy-5-[(7R)-7-methyl-6-oxo-2-[(2-oxo-2,3-dihydro-1,3-benzoxazol-6-yl)amino]-8-(tetrahydro-2H-pyran-4-yl)-7,8-dihydropteridin-5(6H)-yl]benzonitrile], for which the IC50 is at most 100 nM.

With `C[C@@H]1C(=O)N(c2cccc(C(F)(F)F)c2)c2cnc(Nc3ccc4[nH]ncc4c3)nc2N1C1CCCCC1` [Example 36, (7R)-8-cyclohexyl-2-(1H-indazol-5-ylamino)-7-methyl-5-[3-(trifluoromethyl)phenyl]-7,8-dihydropteridin-6(5H)-one], the 50% inhibitory concentration (IC50) was at most 100 nM.

For the compound “(7R)-8-cyclohexyl-2-(1H-indazol-5-ylamino)-7-methyl-5-[4-(morpholin-4-yl)phenyl]-7,8-dihydropteridin-6(5H)-one [compound 126]”, the IC50 was at most 100 nM.

Take `C[C@@H]1C(=O)N(c2cccc(C#N)c2)c2cnc(Nc3cc4cn[nH]c4cn3)nc2N1C1CCC(F)(F)CC1` [compound 268, 3-[(7R)-8-(4,4-difluorocyclohexyl)-7-methyl-6-oxo-2-(1H-pyrazolo[3,4-c]pyridin-5-ylamino)-7,8-dihydropteridin-5(6H)-yl]benzonitrile]: the IC50 was in the range of 100 to 1000 nM.

Take `CC(C)CCN1c2nc(Nc3cc(F)c(O)c(F)c3)ncc2N(c2cccc(C#N)c2)C(=O)[C@H]1C` [Example 89, 3-[(7R)-2-[(3,5-difluoro-4-hydroxyphenyl)amino]-7-methyl-8-(3-methylbutyl)-6-oxo-7,8-dihydropteridin-5(6H)-yl]benzonitrile]: the IC50 is at most 100 nM.

Consider `C[C@@H]1C(=O)N(c2cccc(C#N)c2)c2cnc(Nc3ccc4[nH]c(=O)sc4c3)nc2N1C1CCC(F)(F)CC1` [compound 267, 3-[(7R)-8-(4,4-difluorocyclohexyl)-7-methyl-6-oxo-2-[(2-oxo-2,3-dihydro-1,3-benzothiazol-6-yl)amino]-7,8-dihydropteridin-5(6H)-yl]benzonitrile], for which the IC50 is at most 100 nM.

Take `CC(C)CCN1c2nc(Nc3ccc4c(c3)CC(=O)N4)ncc2N(c2ccccc2)C(=O)C1C` (stereo not drawn) [Example 3, 7-methyl-8-(3-methylbutyl)-2-[(2-oxo-2,3-dihydro-1H-indol-5-yl)amino]-5-phenyl-7,8-dihydropteridin-6(5H)-one]: the IC50 is at most 100 nM.

Regarding `Cc1ccc(N2C(=O)[C@@H](C)N(C3CCCCC3)c3nc(Nc4ccc5[nH]ncc5c4)ncc32)cc1F` [compound 121, (7R)-8-cyclohexyl-5-(3-fluoro-4-methylphenyl)-2-(1H-indazol-5-ylamino)-7-methyl-7,8-dihydropteridin-6(5H)-one], the IC50 was at most 100 nM.

For `CC[C@@H]1C(=O)N(c2cccc(C#N)c2)c2cnc(Nc3ccc4[nH]nc(F)c4c3)nc2N1C1CCCCC1` [compound 295, 3-[(7R)-8-cyclohexyl-7-ethyl-2-[(3-fluoro-1H-indazol-5-yl)amino]-6-oxo-7,8-dihydropteridin-5(6H)-yl]benzonitrile], the IC50 is at most 100 nM.
